# Assay results from patent US20230295086A1, “NOVEL PSILOCIN DERIVATIVES HAVING PRODRUG PROPERTIES” (COMPASS […], priority 2020, published 2023).
# Marks after values point to notes of the source that are not given here.
# Key:
# [1] = target: T1, serotonin 2A (5-HT2A) receptor (Mus musculus, UniProt P35363); assay: Head twitch response (HTR) in mice; format: in vivo, male C57BL/6J mice; details: oral gavage 0.3 mg/kg
# T1 construct: tissue Charles River UK; host or cells: whole living male C57BL/6J mice (in vivo, oral gavage)
# T1 sequence (P35363 whole entry): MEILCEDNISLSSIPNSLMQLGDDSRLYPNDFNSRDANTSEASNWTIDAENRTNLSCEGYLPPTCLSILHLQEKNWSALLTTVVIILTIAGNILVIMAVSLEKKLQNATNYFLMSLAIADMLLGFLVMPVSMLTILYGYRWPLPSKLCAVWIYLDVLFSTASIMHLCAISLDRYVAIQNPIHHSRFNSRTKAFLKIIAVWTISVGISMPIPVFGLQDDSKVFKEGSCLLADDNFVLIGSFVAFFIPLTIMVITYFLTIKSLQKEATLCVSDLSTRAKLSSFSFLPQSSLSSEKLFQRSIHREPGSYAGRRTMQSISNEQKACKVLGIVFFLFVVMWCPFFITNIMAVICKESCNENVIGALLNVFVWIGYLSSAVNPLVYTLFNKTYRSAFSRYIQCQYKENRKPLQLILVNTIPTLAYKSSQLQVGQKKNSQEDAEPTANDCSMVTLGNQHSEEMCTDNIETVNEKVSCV
# [2] = Shake flask Log D assay (Example 11); format: physicochemical; details: 1-Octanol / 100 mM PB pH 7.4, shake flask, LC-MS/MS; test compound as hydrochloride
# Description: Test and control compounds were diluted to 10 mM in DMSO. 2 μl of each stock solution was aliquoted into tubes in duplicate. 1-Octanol saturated phosphate buffer (PB) (pH 7.4) was prepared by adding 1-Octanol into 100 ml of 100 mM PB (7.4). PB saturated 1-Octanol was prepared by adding 10 ml of 100 mM PB (7.4) into 100 ml of 1-Octanol. 149 μl of each solution was aliquoted into the corresponding tubes. These were then mixed vigorously for 2 minutes and shaken (800 rpm) at room temperature for one hour. The appropriate volume of buffer and 1-Octanol layer samples was aliquoted and diluted, before detection using LC-MS/MS.
# Log D was calculated according to the following equation: […]
# [3] = Kinetic solubility assay (Example 11); details: 50 mM PB pH 7.4, target 200 μM, 24 hours shaking at room temperature, UPLC; test compound as hydrochloride
# Description: Test and control compounds were diluted to 10 mM in DMSO and then further diluted 1 in 50 in 50 mM PB (pH 7.4) to a target concentration of 200 μM. Samples were vortexed for at least 2 minutes and then left to shake (800 rpm) at room temperature for 24 hours. Visual appearance was assessed before centrifugation and injection into a UPLC system to measure concentration. […] Each compound was tested in duplicate.
# [4] = Pharmacokinetics in the mouse (plasma psilocin); format: in vivo, male C57BL/6J mice; details: IV, 0.3 mg/kg
# Description: 27 male C57BL/6J mice weighing 22-25 g at time of purchase (Charles River UK) were group housed (3 s) in polypropylene cages. Mice were maintained on a normal phase 12 hr light-dark cycle (lights on from 07:00-19:00) with ad libitum access to standard pelleted diet (Envigo 2018) and filtered tap water. The holding room was maintained at 21±4° C. with a relative humidity of 55±15%.
# Mice were weighed on the day of dosing and identified by a tail mark using a permanent marker pen. Food was not withdrawn on the day of dosing. […] The remaining animals were divided into two cohorts, with animals in the first cohort receiving a single oral dose of one of the test compounds and animals in the second cohort receiving a single intravenous dose (in a lateral tail vein) of one of the test compounds. Following treatment, animals dosed orally were bled by venesection from the lateral tail vein at 5, 15, 30, 45, 60, 120, and 240 minutes post-dosing. Animals dosed intravenously were bled by venesection from the opposite lateral tail vein at the same timepoints. […] All compounds were formulated in saline and dosed in a volume of 5 ml/kg.
# 25 μl of blood was collected per animal per timepoint. […] Psilocin levels within samples were determined using LC-MS/MS. All pharmacokinetic parameters were calculated manually. […]
# Micro shake flask Log D = details: Octanol:PBS 1:9, pH 7.4, 10 μM, six replicates; novel compounds as hemifumarate
# Description: 6 replicates of each test compound were incubated at 10 μM in a 1:9 ratio of Octanol: PBS at pH 7.4. Following a two hour incubation at room temperature shaking at 600 rpm, the incubation plate was centrifuged for 15 minutes to separate the layers and then two aliquots were removed from the PBS layer. The first was left neat and the second was diluted 10-fold to give dilute samples. Internal standards were added to both the calibration curve and the PBS incubation samples for analysis on LC MS/MS.
# All 6 replicates of the neat samples were averaged to give one value for each, with the same calculation performed for the dilute sample values.
# [5] = Intake study: serum concentrations after oral ingestion by two volunteers; details: for c(Psilocin): study 2
# Description: Two volunteers (1 M, 1 F) ingested about 1 mg of each one of P1 and M1 (Study 1) and P2 and M2 (Study 2) in gelatin capsules (exact amounts in Tables 3 and 4). One blood sample was collected prior to ingestion of the substances and served as a zero control. After ingestion samples were collected for about 8 h with increasing time intervals between sample taking (exact protocol in Tables 4 and 5). […] The obtained sera were transferred in plastic tubes and NaF (ca. 30 mg) and ascorbic acid (ca. 5 mg) were added to increase analytes stability.
# 200 μL serum were spiked with an internal standard solution (10 μL) and ACN (600 μL) was added to precipitate soluble proteins. Before mixing thoroughly ammonium formate (10 M, 200 μL) was added separate the aqueous from the organic phase. After centrifugation (6 min, 4,000×g), 500 μL of the organic phase were transferred into another vial and evaporated to dryness at 40° C. under a gentle stream of nitrogen. Samples were reconstituted in 100 μL mobile phase (A/B, 90/10, v/v) and used for analysis. For quantification a blank sample and a six point calibration (0.5, 1.0, 2.0, 5.0, 10, 20 ng/mL) in calf serum were prepared as described above.
# The HPLC-MS system consisted of a Nexera X2 UHPLC system composed of three LC-30AD pumps, a DGU-30A3 degasser, a SIL-30AC autosampler, a CTO-10AS column oven and a CBM-20A controller (Shimadzu, Duisburg, Germany) coupled to a QTRAP 6500plus triple quadrupole linear ion trap mass spectrometer equipped with a TurbolonSpray Interface (Sciex, Darmstadt, Germany). The MS was operated in positive electrospray ionization mode. Data acquisition was performed in scheduled multiple reaction monitoring mode (detection window: 60 s) using Analyst software (version 1.7). MS parameters (declustering potential, entrance potential, collision energy, and collision cell exit potential) were optimized for all substances to obtain the best possible signal intensities (summary of the MRM parameters are given in Table 5). Ion source temperature and ion source voltage were set to 550° C. and +5500 V, respectively. Dwell time was 20 ms for every MRM transition. Curtain gas (N2) pressure was 35 psi, ion source gas 1 and 2 (compressed air) pressure were 50 and 60 psi, respectively, and collision gas (N2) pressure was set to “high.” Chromatographic separation was performed on a Kinetex® biphenyl column (100×2.1 mm, 2.6 μm particle size, Phenomenex, Aschaffenburg, Germany) with a corresponding guard column (SecurityGuard™ ULTRA Cartridges UHPLC Biphenyl for 2.1 mm ID columns, Phenomenex, Aschaffenburg, Germany). The autosampler and the column oven temperature were set to 10° C. and 40° C., respectively. The injection volume was 10 μL.
# [6] = Stability of psilocin carbonates in 1% HCl; format: physicochemical; details: 37° C., approximately 26 hours, LC-MS
# Description: 4 mg of each test compound was diluted in 2 ml distilled water to give a solution of 2 mg/ml. 2 ml of test compound solutions were then added to 2 ml of 2% (v/v) HCl in distilled water, yielding a final HCl concentration of […] (pH 0.5). Test solutions were incubated at 37° C. with continuous stirring for approximately 26 hours. Concentrations of parent compound and psilocin were analyzed at various timepoints using LC-MS. Concentrations of both parent prodrug and psilocin liberated were expressed relative to the starting concentration of parent prodrug.
# [7] = serum, oral intake of about 1 mg prodrug, mean of 2 volunteers
smiles,measurement,setting,value
"CN(C)CCc1c[nH]c2cccc(OC(=O)OCc3ccccc3)c12 [Psilocin-4-yl-benzylcarbonate, psilocin-4-yl benzyl carbonate]",Mean number of head twitches 0-15 mins,[1]; N = 8,2.63
same,Mean number of head twitches 30-45 mins,[1]; N = 8,1.88
same,Mean number of head twitches 45-60 mins,[1]; N = 8,1.13
same,Mean number of head twitches Total 0-60 mins,[1]; N = 8,8.2
same,Mean number of head twitches 15-30 mins,"[1]; N = 8, 0.3 mg/kg",4.13
same,Mean number of head twitches 15-30 mins,"[1]; N = 8, listed as Psilocin-4-yl-benylcarbonate, 0.3 mg/kg",of similar magnitude to that induced by psilocybin
same,Mean LogD,[2],2.19
same,Detected concentration,[3],230 µM
same,Cmax (psilocin),[4],approximately double that of psilocybin
"CN(C)CCc1c[nH]c2cccc(OC(=O)OC(C)(C)C)c12 [Psilocin-4-yl-tert-butylcarbonate, psilocin-4-yl tert-butyl carbonate]",Mean LogD,Micro shake flask Log D,1.50
same,"Parent prodrug itself in serum (not detected, LOD)",[5]; serum after oral ingestion of about 1 mg,< 0.07 ng/mL
same,Cmax of psilocin,[5]; [7],1.13 ± 0.01 ng/mL
same,Tmax of psilocin,[5]; [7],1.5 ± 0.933 h
same,elimination constant kel of psilocin,[5]; [7],0.0043 min⁻¹
same,elimination half life t1/2 of psilocin,[5]; [7],2.67 h
same,c(Psilocin),"[5]; serum, test person A, oral P2 0.98 mg salt, 4 min, below LOQ, extrapolated",0.16* ng/mL
same,c(Psilocin),"[5]; serum, test person A, oral P2 0.98 mg salt, 12 min, below LOQ, extrapolated",0.16* ng/mL
same,c(Psilocin),"[5]; serum, test person A, oral P2 0.98 mg salt, 23 min, below LOQ, extrapolated",0.21* ng/mL
same,c(Psilocin),"[5]; serum, test person A, oral P2 0.98 mg salt, 34 min, below LOQ, extrapolated",0.22* ng/mL
same,c(Psilocin),"[5]; serum, test person A, oral P2 0.98 mg salt, 50 min",0.43 ng/mL
same,c(Psilocin),"[5]; serum, test person A, oral P2 0.98 mg salt, 77 min",0.57 ng/mL
same,c(Psilocin),"[5]; serum, test person A, oral P2 0.98 mg salt, 113 min",0.99 ng/mL
same,c(Psilocin),"[5]; serum, test person A, oral P2 0.98 mg salt, 130 min",1.14 ng/mL
same,c(Psilocin),"[5]; serum, test person A, oral P2 0.98 mg salt, 165 min",0.96 ng/mL
same,c(Psilocin),"[5]; serum, test person A, oral P2 0.98 mg salt, 205 min",0.83 ng/mL
same,c(Psilocin),"[5]; serum, test person A, oral P2 0.98 mg salt, 270 min",0.66 ng/mL
same,c(Psilocin),"[5]; serum, test person A, oral P2 0.98 mg salt, 335 min",0.47 ng/mL
same,c(Psilocin),"[5]; serum, test person A, oral P2 0.98 mg salt, 395 min",0.40 ng/mL
same,c(Psilocin),"[5]; serum, test person A, oral P2 0.98 mg salt, 458 min, below LOQ, extrapolated",0.30* ng/mL
same,c(Psilocin),"[5]; serum, test person B, oral P2 1.05 mg salt, 6 min, below LOQ, extrapolated",0.24* ng/mL
same,c(Psilocin),"[5]; serum, test person B, oral P2 1.05 mg salt, 13 min, below LOQ, extrapolated",0.26* ng/mL
same,c(Psilocin),"[5]; serum, test person B, oral P2 1.05 mg salt, 22 min",0.48 ng/mL
same,c(Psilocin),"[5]; serum, test person B, oral P2 1.05 mg salt, 34 min",0.75 ng/mL
same,c(Psilocin),"[5]; serum, test person B, oral P2 1.05 mg salt, 50 min",1.12 ng/mL
same,c(Psilocin),"[5]; serum, test person B, oral P2 1.05 mg salt, 77 min",1.12 ng/mL
same,c(Psilocin),"[5]; serum, test person B, oral P2 1.05 mg salt, 100 min",0.92 ng/mL
same,c(Psilocin),"[5]; serum, test person B, oral P2 1.05 mg salt, 127 min",0.73 ng/mL
same,c(Psilocin),"[5]; serum, test person B, oral P2 1.05 mg salt, 165 min",0.53 ng/mL
same,c(Psilocin),"[5]; serum, test person B, oral P2 1.05 mg salt, 205 min",0.51 ng/mL
same,c(Psilocin),"[5]; serum, test person B, oral P2 1.05 mg salt, 270 min",0.40 ng/mL
same,c(Psilocin),"[5]; serum, test person B, oral P2 1.05 mg salt, 331 min",0.33 ng/mL
same,c(Psilocin),"[5]; serum, test person B, oral P2 1.05 mg salt, 394 min, below LOQ, extrapolated",0.30* ng/mL
same,c(Psilocin),"[5]; serum, test person B, oral P2 1.05 mg salt, 454 min, below LOQ, extrapolated",0.29* ng/mL
same,Mean number of head twitches 0-15 mins,[1]; N = 8,3
same,Mean number of head twitches 15-30 mins,[1]; N = 8,2
same,Mean number of head twitches 30-45 mins,[1]; N = 8,1.5
same,Mean number of head twitches 45-60 mins,[1]; N = 8,0.13
same,Mean number of head twitches Total 0-60 mins,[1]; N = 8,6.48
same,Degradation of parent compound / conversion to psilocin,[6],rapid and complete chemical degradation to psilocin within approximately four hours
